Test results: US20220378923A1, “BET DEGRADER” (KYOWA KIRIN CO., LTD., priority 2019, published 2022)

Test system: DCAF16 KO SU-DHL-4 cells
Experiment: Inhibitory effect on cell viability using SU-DHL-4 DCAF16 knock out (KO) cell line (Test Example 6)
Format: cell-based, human
Conditions: for Activity Attenuation Ratio: (SU-DHL-4 DCAF16 KO IC50)/(SU-DHL-4 WT IC50); for IC50: Homo sapiens, DCAF16 KO SU-DHL-4 cells, 72 hours, Cell Counting Kit-8, 50% inhibition of cell viability
Procedure: The human DLBCL cell line SU-DHL-4 was purchased from DSMZ. SU-DHL-4 was passaged using RPMI1640 medium containing 10 vol % FBS. After the Cas9 gene was introduced, the cells were cultured in the above medium containing 0.01 mg/mL blasticidin (InvivoGen, Cat No. ant-bl-1). After introduction of sgRNA, the cells were cultured in the above medium containing 0.0001 mg/mL puromycin dihydrochloride (SIGMA, Cat No. P9020-10 ML). The culture conditions were 37° C. and 5% CO2.
Edit-R Lentiviral hEF1α-Blast-Cas9 Nuclease Particles (Cat No. VCAS10126) was used as a lentivirus for expressing Cas9 in human cell lines. Three types of Edit-R Human DCAF16 Lentiviral sgRNA (Cat No. VSGH10142-246568260; DNA target sequence […] (SEQ ID NO: 1), Cat No. VSGH10142-246568262; DNA target sequence […] (SEQ ID NO: 2) and Cat No. VSGH10142-246568263; DNA target sequence […] (SEQ ID NO: 3)) were used as lentiviruses for introducing DCAF16 sgRNA. As a control, Edit-R Lentiviral sgRNA Non-targeting Control #1 (Cat No. VSGC10215) was used. All lentiviruses were purchased from Dharmacon and stored at −80° C. until use.
SU-DHL-4 was suspended at 4×10^5 cells/mL in RPMI 1640 without FBS, 0.25 mL of the suspension was added to a 24-well plate, and the cells were cultured overnight. The next day, 0.003 mL of virus particles of Edit-R Lentiviral hEF1α-Blast-Cas9 Nuclease Particles was added. After culturing in a CO2 incubator for 4 hours, RPMI 1640 containing 0.75 mL of 10 vol % FBS was added. After culturing in a CO2 incubator for about 48 hours, the medium was replaced with RPMI1640 containing 10 vol % FBS, and the cells were cultured in a CO2 incubator. Four days after infection, the medium was replaced with a medium containing 0.01 mg/mL blasticidin (InvivoGen, Cat No. ant-bl-1). Then, the cells were passaged once every 2 to 3 days and thus twice in total (that is, cultured for 1 week) to obtain SU-DHL-4/Cas9, which is a Cas9-introduced SU-DHL-4 cell line.
(6) sgRNA infection SU-DHL-4/Cas9 was suspended at 4×10^5 cells/mL in RPMI 1640 without FBS, 0.25 mL of the suspension was added to a 24-well plate, and the cells were cultured overnight. The next day, a total of 4 types of sgRNA virus particles, 1 type of Control and 3 types targeting DCAF16 were added to the respective wells by 0.03 mL. After culturing in a CO2 incubator for 5 hours, RPMI 1640 containing 0.75 mL of 10 vol % FBS was added.
After culturing in a CO2 incubator for about 48 hours, the medium was replaced with RPMI1640 containing 10 vol % FBS, and the cells were cultured in a CO2 incubator. Four days after infection, the medium was replaced with a medium supplemented with 0.01 mg/mL puromycin dihydrochloride (SIGMA, Cat No. P9020-10 ML). Then, the cells were passaged once or twice a week for 2 weeks, and a cell stock was prepared using CELLBANKER I plus (Takara Bio, Cat No. CB-021). Cell line stock was stored at −80° C. Using Edit-R Lentiviral sgRNA Non-targeting Control #1, the Negative Control sequence was introduced into the SU-DHL-4 cell line, which was referred to as SU-DHL-4 NC strain, and using Edit-R Human DCAF16 Lentiviral sgRNA, […] sequence (SEQ ID NO: 1) was introduced into the SU-DHL-4 cell line, which was referred to as SU-DHL-4 DCAF16 KO1 strain, […] sequence (SEQ ID NO: 2) was introduced into the SU-DHL-4 cell line, which was referred to as SU-DHL-4 DCAF16 KO2 strain, and […] sequence (SEQ ID NO: 3) was introduced into the SU-DHL-4 cell line, which was referred to as SU-DHL-4 DCAF16 KO 3 strain.
The cultured DCAF16 KO SU-DHL-4 cells were seeded at 2000 cells/well in a transparent 384-well plate (Code No. 781182, Greiner bio-one). After seeding, the cells were pre-cultured at 37° C. in a carbon dioxide gas incubator for 18 to 25 hours. […]

Row | SMILES | Activity Attenuation Ratio | IC50
1 | CCC(=O)N1c2ccccc2[C@H](Nc2ccc(-c3cnn(CC(=O)Nc4ccc(C5=NCc6nnc(C)n6-c6sc(C)c(C)c65)cc4)c3)cc2)C[C@@H]1C [Compound 14a, 2-(4-(4-(((2S,4R)-2-Methyl-1-propionyl-1,2,3,4-tetrahydroquinolin-4-yl)amino)phenyl)-1H-pyrazol-1-yl)-N-(4-(2,3,9-trimethyl-6H-thieno[3,2-f][1,2,4]triazolo[4,3-a][1,4]diazepin-4-yl)phenyl)acetamide] | 228 | 4 nM
2 | CCC(=O)N1c2ccccc2[C@H](Nc2ccc(NC(=O)CCCC(=O)Nc3ccc(N[C@@H]4C[C@H](C)N(C(=O)CC)c5ccccc54)nc3)cc2)C[C@@H]1C [Compound 10k, N^1-(4-(((2S,4R)-2-Methyl-1-propionyl-1,2,3,4-tetrahydroquinolin-4-yl)amino)phenyl)-N^5-(6-(((2S,4R)-2-methyl-1-propionyl-1,2,3,4-tetrahydroquinolin-4-yl)amino)pyridin-3-yl)glutaramide] | 672 | 143 nM
3 | CCC(=O)N1c2ccccc2[C@H](Nc2ccc(NC(=O)CCCC(=O)Nc3ccc(C(=O)N4CCC(=O)Nc5ccccc54)cc3)cc2)C[C@@H]1C [Compound 16o, N^1-(4-(((2S,4R)-2-Methyl-1-propionyl-1,2,3,4-tetrahydroquinolin-4-yl)amino)phenyl)-N5-(4-(4-oxo-2,3,4,5-tetra hydro-1H-benzo[b][1,4]diazepine-1-carbonyl)phenyl)glutaramide] | 96 | 2400 nM
4 | CCC(=O)N1c2ccccc2[C@H](NCC23CCC(C(=O)N4CC(C(=O)Nc5ccc(N[C@@H]6C[C@H](C)N(C(=O)CC)c7ccccc76)cc5)C4)(CC2)CC3)C[C@@H]1C (relative stereo) [Compound 17o, 1-(4-((((2S,4R)-2-Methyl-1-propionyl-1,2,3,4-tetrahydroquinolin-4-yl)amino)methyl)bicyclo[2.2.2]octane-1-carbonyl)-N-(4-(((2S*,4R*)-2-methyl-1-propionyl-1,2,3,4-tetrahydroquinolin-4-yl)amino)phenyl)azetidine-3-carboxamide] | 670 | 522 nM
5 | CCC(=O)N1c2ccccc2[C@H](Nc2ccc(CNCc3cn(-c4ccc(N[C@@H]5C[C@H](C)N(C(=O)CC)c6ccccc65)cc4)nn3)cc2)C[C@@H]1C [Compound 5h, 1-((2S,4R)-2-Methyl-4-((4-((((1-(4-(((2S,4R)-2-methyl-1-propionyl-1,2,3,4-tetrahydroquinolin-4-yl)amino)phenyl)-1H-1,2,3-triazol-4-yl)methyl)amino)methyl)phenyl)amino)-3,4-dihydroquinolin-1(2H)-yl)propan-1-one] | 942 | 58.4 nM
6 | CCC(=O)N1c2ccccc2[C@H](NCc2ccc(C(=O)N3CC(C(=O)Nc4ccc(N[C@@H]5C[C@H](C)N(C(=O)CC)c6ccccc65)cc4)C3)cc2)C[C@@H]1C (relative stereo) [Compound 10g, 1-(4-((((2S*,4R*)-2-Methyl-1-propionyl-1,2,3,4-tetrahydroquinolin-4-yl)amino)methyl)benzoyl)-N-(4-(((2S,4R)-2-methyl-1-propionyl-1,2,3,4-tetrahydroquinolin-4-yl)amino)phenyl)azetidine-3-carboxamide] | 154 | 142 nM
7 | CCC(=O)N1c2ccccc2[C@H](Nc2ccc(NC(=O)CCCC(=O)Nc3ccc(N[C@@H]4C[C@H](C)N(C(=O)CC)c5ccccc54)cc3)cc2)C[C@@H]1C [Compound 6k, N^1,N^5-Bis(4-(((2S,4R)-2-methyl-1-propionyl-1,2,3,4-tetrahydroquinolin-4-yl)amino)phenyl)glutaramide] | 520 | 31.2 nM
8 | CCC(=O)N1c2ccccc2[C@H](Nc2ccc(CCCC(=O)Nc3ccc(N[C@@H]4C[C@H](C)N(C(=O)CC)c5ccccc54)cc3)cc2)C[C@@H]1C [Compound 5r, N,4-Bis(4-(((2S,4R)-2-methyl-1-propionyl-1,2,3,4-tetrahydroquinolin-4-yl)amino)phenyl)butanamide] | 30 | 15.7 nM
